Structures are written as SMILES.

The record followed here is ChEMBL document CHEMBL3045408, “Receptor and ligand-based 3D-QSAR study on a series of nonsteroidal anti-inflammatory drugs” (Med Chem Res, 2013).

Test [1] addresses T1, Prostaglandin G/H synthase 2 (Homo sapiens, UniProt P35354).
T1 sequence (P35354 whole entry): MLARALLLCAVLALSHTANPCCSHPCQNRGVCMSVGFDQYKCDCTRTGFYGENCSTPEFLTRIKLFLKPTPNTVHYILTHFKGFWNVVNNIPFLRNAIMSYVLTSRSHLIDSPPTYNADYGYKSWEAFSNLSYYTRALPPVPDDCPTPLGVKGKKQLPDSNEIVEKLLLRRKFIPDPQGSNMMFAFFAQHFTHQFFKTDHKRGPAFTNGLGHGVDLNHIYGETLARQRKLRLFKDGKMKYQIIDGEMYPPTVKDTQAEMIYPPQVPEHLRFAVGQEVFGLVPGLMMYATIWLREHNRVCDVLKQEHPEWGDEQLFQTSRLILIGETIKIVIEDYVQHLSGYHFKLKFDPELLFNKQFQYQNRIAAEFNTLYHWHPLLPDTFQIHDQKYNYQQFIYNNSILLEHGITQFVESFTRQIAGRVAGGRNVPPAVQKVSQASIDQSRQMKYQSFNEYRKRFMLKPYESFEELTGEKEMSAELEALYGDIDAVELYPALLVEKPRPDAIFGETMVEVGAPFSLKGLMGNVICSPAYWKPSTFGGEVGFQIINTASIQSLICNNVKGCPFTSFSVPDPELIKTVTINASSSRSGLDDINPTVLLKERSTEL
The test is described as follows: Inhibition of COX2 (unknown origin).

Test [2] deals with T2, Prostaglandin G/H synthase 2 (Homo sapiens) (UniProt P35354).
T2 sequence (whole entry): T1 sequence (P35354 whole entry)
The experiment in a line: Ratio of compound IC50 to celecoxib IC50 for Inhibition of COX2 (unknown origin).

With `CS(=O)(=O)c1ccc(/C=C(/C(=O)O)c2cccc(-c3ccc(F)cc3F)c2)cc1`, in test [1], the IC50 (in general, the midpoint of a concentration-inhibition curve) was above 100 µM. For the same molecule, the -log(RatioIC50) in test [2] is -3.2.
`CS(=O)(=O)c1ccc(C=C(c2ccc(Cl)cc2)c2ccc(Cl)cc2)cc1` had a half-inhibitory concentration (IC50) in test [1] of 2 µM.
As for `CCCC/C(=C(\c1ccccc1)c1ccc(NS(C)(=O)=O)cc1)c1ccccc1`, half-maximal inhibition in test [1] (IC50) was put at 0.32 µM. For the same molecule, the -log(RatioIC50) in test [2] is -0.66.
In the same order, the values of `CC/C(=C(\c1ccccc1)c1ccc(NS(C)(=O)=O)cc1)c1ccccc1` are 1.8 µM and -1.41.
Regarding `CCCCC(=C(c1ccccc1)c1ccccc1)c1ccc(S(C)(=O)=O)cc1`, the -log(RatioIC50) in test [2] is 0.609.
As for `CCCCC(=C(c1ccccc1)c1cc(C(C)(C)C)c(C(C)=O)c(C(C)(C)C)c1)c1ccc(S(C)(=O)=O)cc1`, the IC50 in test [1] is above 100 µM. Moreover, the -log(RatioIC50) in test [2] was -3.2.
The molecule `CC(C)Oc1ccc(-c2cccc(/C(=C\c3ccc(S(C)(=O)=O)cc3)C(=O)O)c2)cc1` displayed an IC50 in test [1] above 100 µM. In test [2], the -log(RatioIC50) was -3.2.
`CCC(=C(c1ccccc1)c1ccccc1)c1ccc(S(C)(=O)=O)cc1`: 1.25 µM corresponded to half-maximal inhibition in test [1] (IC50). For the same molecule, the -log(RatioIC50) in test [2] was -1.34.
The corresponding values for `CCCCC(=C(c1ccccc1)c1cc(C(C)(C)C)c(O)c(C(C)(C)C)c1)c1ccc(S(C)(=O)=O)cc1` are 0.36 µM and -0.711.
The corresponding values for `CS(=O)(=O)Nc1ccc(/C(=C(\c2ccccc2)C2CCCCC2)c2ccccc2)cc1` are above 100 µM and -3.15.
